Laboratory results reported in paper PMC12167813, “Characterization of a two-component kinase that initiates the bacterial catabolism of hydroxyphenylethanones” (The Journal of Biological Chemistry, 2025).

Assays:
HpeHI [1] = test system: T1, HpeHI; experiment: continuous spectrophotometric assay, low-concentration rates verified by LC-MS; type: biochemical, Rhodococcus rhodochrous; conditions: apparent; 500 μM ATP, 2.0 mM MgCl2, 25 μM MnCl2, HEPES pH 7.5, I = 20 mM, 30 °C; 0.05 μM HpeH, 0.10 μM HpeI; upper bound
T1 construct: gene hpeH; two components made separately in E. coli, N-terminal His tags cut with TEV; phenolic site in HpeH
Description: continuous spectrophotometric assay, low-concentration rates verified by LC-MS on HpeHI

[2] = biological target: HpeH (Rhodococcus rhodochrous GD02); experiment: mass photometry; Refeyn TwoMP; samples at 20 nM in the standard assay buffer (low ionic strength); acquisition 60 s
[3] = biological target: HpeH (Rhodococcus rhodochrous GD02); experiment: SEC-MALS; Superdex 200; 50 µl of HpeH (12.5 µM), HpeI (25 µM) or both, incubated at room temperature for at least 20 min; 10 mM Hepes pH 7.5, 0.50 mM TCEP, 2.0 mM MgCl2, 0.25 mM MnCl2, with 20 mM or 200 mM NaCl; also with AMP-PNP
HpeHI [4] = test system: T1, HpeHI; experiment: continuous spectrophotometric assay; type: biochemical, Rhodococcus rhodochrous; conditions: apparent; 500 μM ATP, 2.0 mM MgCl2, 25 μM MnCl2, HEPES pH 7.5, I = 20 mM, 30 °C; 0.05 μM HpeH, 0.10 μM HpeI
Description: continuous spectrophotometric assay on HpeHI

| Km (HpeHI [1]) [µM] | Molecule | Km (HpeHI [4]) [µM] | also measured |
| --- | --- | --- | --- |
| < 0.3 | CC(=O)c1ccc(O)cc1 [4-hydroxyacetophenone] |  |  |
|  | HpeH (enzyme) |  | stoichiometry N [2]: 2; stoichiometry N [3]: 2 |
| < 0.3 | COc1cc(C(C)=O)ccc1O [acetovanillone] |  |  |
|  | COc1cc(C=O)ccc1O [vanillin] | 10.3 |  |
|  | O=Cc1ccc(O)cc1 [4-hydroxybenzaldehyde] | 9.6 |  |
